Assay results reported in patent EP4591861A1 (IBIOME Biotechnology Co., Ltd., priority 2022, dated 2024).

Columns and labels:
[1] = test system: CRS-induced depression model; assay: Sucrose preference test in CRS-induced depression model; conditions: CRS mice; 0.1 mg/kg intravenous; versus CRS + normal saline group (P<0.01)
Description: After adapting to the environment, from day 0, the CRS mouse group was subjected to chronic, unpredictable mild stimulation for 21 days to simulate the chronic low-intensity stress received by humans in daily life. Every day, one stimulus was selected from the day and night to treat the mice, and the order was random and continuous without repetition, so that the mice could not predict the appearance of the stimulus (Table 1).
Two hours after administration, the mice were subjected to forced swimming and tail suspension tests, and the immobility time of the mice in each group in the forced swimming and tail suspension tests was compared.
The sucrose preference test is used to evaluate the sucrose water preference of mice, which can reflect the degree of anhedonia of mice. In the entire animal experiment, a total of two sucrose preference tests were conducted. Before modeling, the sucrose preference coefficient of all mice was measured by the sucrose preference tests to ensure that the mice in the experiment were in the same state. After the test, the sucrose preference tests were formally carried out, including the adaptation training part and the test part. […] After the adaptation, fasting and water deprivation for 24 hours, and then the sucrose preference coefficient was measured. […]

[2] = target: T1, human BBOX1 (Homo sapiens, UniProt O75936); conditions: binding to the active site of human BBOX1; background statement; cited from earlier work
T1 sequence (O75936 1-387): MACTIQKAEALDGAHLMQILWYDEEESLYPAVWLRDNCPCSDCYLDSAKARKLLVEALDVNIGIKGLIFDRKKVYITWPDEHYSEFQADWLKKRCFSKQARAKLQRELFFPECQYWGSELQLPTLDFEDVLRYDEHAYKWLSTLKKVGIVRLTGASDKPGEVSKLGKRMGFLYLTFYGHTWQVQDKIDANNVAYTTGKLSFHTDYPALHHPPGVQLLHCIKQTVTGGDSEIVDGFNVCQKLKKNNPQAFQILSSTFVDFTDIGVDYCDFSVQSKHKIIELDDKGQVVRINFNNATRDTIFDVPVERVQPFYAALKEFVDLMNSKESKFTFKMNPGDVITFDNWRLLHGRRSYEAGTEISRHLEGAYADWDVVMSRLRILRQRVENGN

[3] = test system: Cort-induced depression model; assay: Sucrose preference test in Cort-induced depression model; conditions: Cort mice; 0.1 mg/kg intravenous; versus Cort mice + normal saline group (P<0.01)
Method: The sucrose preference test is used to evaluate the sucrose water preference of mice, which can reflect the degree of anhedonia of mice. In the entire animal experiment, a total of two sucrose preference tests were conducted. Before modeling, the sucrose preference coefficient of all mice was measured by the sucrose preference tests to ensure that the mice in the experiment were in the same state. After the test, the sucrose preference tests were formally carried out, including the adaptation training part and the test part. In the training, two bottles of 1% (w/v) sucrose solution were placed in each cage of mice in the first 24 hours, and one of the bottles was replaced with pure water in the next 24 hours. After the adaptation, fasting and water deprivation for 24 hours, and then the sucrose preference coefficient was measured. In the test, mice can only choose two bottles weighed in advance, one bottle is 1% (w/v) sucrose solution, and the other bottle is pure water. After fasting for 24 hours, take away the two bottles and weigh them, and record the total liquid consumption, sucrose water consumption and pure water consumption of the mice. The calculation method of sucrose preference coefficient is: sucrose preference coefficient (%) = sucrose water consumption/ (sucrose water consumption + pure water consumption) × 100%. […]

[4] = test system: AAD-induced depression model; assay: Forced swimming test in AAD-induced depression model; type: in vivo, mice; conditions: for immobility time: forced swimming, AAD mice, 2 hours after administration
Method: The forced swimming test apparatus is a transparent 20×30cm round barrel filled with pure water, with a diameter of 20cm and a water depth of 15cm. The pure water temperature is 23-25°C. A camera is installed in front of the apparatus and is flush with the water surface. After the mouse is placed in the water, a video of its activities in the water is collected for 6 minutes. The last 4 min of the video were analyzed to determine the immobility time of the mouse. Immobility behavior is defined as the behavior of the mouse floating, not struggling, or relying only on occasional swinging to maintain floating. The longer the immobility time, the more severe the depression.
(§1) 11, 12, and 13. […] At the same time, it still has a significant antidepressant effect at concentrations of 0.3 mg/kg, 1 mg/kg, and 10 mg/kg.

[5] = test system: AAD-induced depression model; assay: Sucrose preference test in AAD-induced depression model; type: in vivo; conditions: AAD mice; 0.1 mg/kg intravenous; versus AAD mice + normal saline group (P<0.01)
Method: as §1

[6] = test system: AAD-induced depression model; assay: Tail suspension test in AAD-induced depression model; type: in vivo; conditions: AAD mice, 2 hours after administration
Method: The tail suspension test uses tape to suspend mice by their tails in a position where they cannot escape or grab onto nearby surfaces. A camera is mounted in front of the mice to record the activity of the mice for 6 minutes while they are suspended. The last 4 min of the video is then analyzed to determine the time the mice spend immobile. This test is based on the idea that animals that are subjected to short-term, unavoidable stress will develop an immobile posture, and the more severe the depressive phenotype, the less time they will spend trying to escape.
as §1

[7] = 0.1 mg/kg intravenous, versus AAD mice + normal saline group

SMILES | sucrose preference [1] | dissociation constant [2] | sucrose preference [3] | duration of the antidepressant effect after a single administration ([4]; mouse, in vivo, iv, 0.1 mg/kg) [h] | sucrose preference [5] | immobility time [6, 7] | immobility time ([6]; 3 mg/kg intravenous) | immobility time [4, 7] | immobility time ([4]; 3 mg/kg intravenous)
CC(CCC(=O)[O-])[N+](C)(C)C (stereo not shown) [4-TMAP, 4-(trimethylammonio) pentanoate] | significantly higher | low | significantly higher | 24 to 36 | significantly higher | – | – | – | –
O=c1ccc2ccc(OCCCCN3CCN(c4cccc5sccc45)CC3)cc2[nH]1 [Brexpiprazole] | – | – | – | – | cannot change the depressive-like behavior | cannot change the depressive-like behavior | significantly reducing | cannot change the depressive-like behavior | significantly reducing
